# Measurements published in patent US6447818B1, “Compositions containing compounds with adrenergic activity and vegetable extracts of Crataegus and gingko biloba for the treatment of overweight and obesity” (Ambros Pharma S.R.L., priority 1999, dated 2002).
# Test system: systemic arterial pressure and cardiac frequency in the rat
# Assay: Hypertensive and tachycardic effects of adrenergic substances and extracts in the anesthetized rat
# Format: in vivo
# Details: i.v., anesthetized male Wistar rats, dose-dependent
# Text: 1. Effects of Crataegus Extract and Oterin® on Hypertension Induced with Ephedrine or with Extract of Ephedra Sinica Standardized in Ephedrine or Induced with Synephrine, or with Extract of Citrus Aurantium Standardized in Synephrine in the Rat
# Male Wistar rats (Charles River, Calco-CO) weighing 180-200 grams were used. The animals were anesthetized with ethylurethane (1.2-1.5 g/kg i.p.) and prepared for the recording of systemic arterial pressure (via the carotid artery) and cardiac frequency. Individual examples of the registration (copies of the original tracings) and the summary of the mean data (±SEM) are given in FIGS. 1-4.
# The dosages of synephrine leading to hypertensive activity were slightly higher (0.5-2 mg/kg i.v.) (FIGS. 2A, 3C). […] Tachycardia was induced in the same dose-dependent manner (FIGS. 3A, 3B).
structure (smiles),measurement,value
CNCC(O)c1ccc(O)cc1 (stereo not shown) [synephrine],dosages inducing hypertensive effects on the arterial pressure,0.5 to 2 mg/kg
